This note sets out measurements from patent US20230106032A1, “IMIDAZOTRIAZINES ACTING ON CANCER VIA INHIBITION OF CDK12” (Bayer Aktiengesellschaft, priority 2020, published 2023).

In assay [1] the target is T1, CDK9/CycT1 (Homo sapiens, UniProt P50750).
T1 construct: Recombinant full-length His-tagged human CDK9 and CycT1, expressed in insect cells; His; purchased Life Technologies PV4131; host or cells: insect cells
Put plainly: CDK9/CycT1 high ATP kinase assay (TR-FRET, 2 mM ATP). In kind it is biochemical. The following applies: read-out: CDK9/CyclinT1, 2 mM ATP (high ATP) IC50-[mol/l] (median). Here is the method: CDK9/CycT1-inhibitory activity of compounds of the present invention at a high ATP concentration after preincubation of enzyme and test compounds was quantified employing the CDK9/CycT1 TR-FRET assay as described in the following paragraphs.
Recombinant full-length His-tagged human CDK9 and CycT1, expressed in insect cells and purified by Ni-NTA affinity chromatography, were purchased from Life Technologies (Cat. No PV4131). As substrate for the kinase reaction biotinylated peptide biotin-Ttds-YISPLKSPYKISEG (C-terminus in amide form) was used which can be purchased e.g. form the company JERINI peptide technologies (Berlin, Germany).
For the assay 50 nanoL of a 100 fold concentrated solution of the test compound in DMSO was pipetted into either a black low volume 384 well microtiter plate or a black 1536 well microtiter plate (both Greiner Bio-One, Frickenhausen, Germany), 2 microL of a solution of CDK9/CycT1 in aqueous assay buffer [50 millimol/L Tris/HCl pH 8.0, 10 millimol/L MgCl2, 1.0 millimol/L dithiothreitol, 0.1 millimol/L sodium ortho-vanadate, 0.01% (v/v) Nonidet-P40 (Sigma)] were added and the mixture was incubated for 15 min at 22° C. to allow pre-binding of the test compounds to the enzyme before the start of the kinase reaction. Then the kinase reaction was started by the addition of 3 microL of a solution of adenosine-tri-phosphate (ATP, 3.3 millimol/L=> final conc. in the 5 microL assay volume is 2 millimol/L) and substrate (1.25 micromol/L=> final conc. in the 5 microL assay volume is 0.75 micromol/L) in assay buffer and the resulting mixture was incubated for a reaction time of 25 min at 22° C. The concentration of CDK9/CycT1 was adjusted depending of the activity of the enzyme lot and was chosen appropriate to have the assay in the linear range, typical concentrations were in the range of 0.5 microg/ml. The reaction was stopped by the addition of 3 microL of a solution of TR-FRET detection reagents (0.33 micromol/L streptavidine-XL665 [Cisbio Bioassays, Codolet, France] and 1.67 nanomol/L anti-RB(pSer807/pSer8l 1)-antibody from BD Pharmingen [#558389] and 2 nanomol/L LANCE EU-W1024 labeled anti-mouse IgG antibody [Perkin-Elmer, product no. AD0077]) in an aqueous EDTA-solution (167 millimol/L EDTA, 0.2% (w/v) bovine serum albumin in 100 millimol/L HEPES pH 7.5).
The resulting mixture was incubated 1 h at 22° C. to allow the formation of complex between the phosphorylated biotinylated peptide and the detection reagents. Subsequently the amount of phosphorylated substrate was evaluated by measurement of the resonance energy transfer from the Eu-chelate to the streptavidine-XL. Therefore, the fluorescence emissions at 620 nm and 665 nm after excitation at 350 nm was measured in a TR-FRET reader, e.g. a Pherastar (BMG Labtechnologies, Offenburg, Germany) or a Viewlux (Perkin-Elmer). The ratio of the emissions at 665 nm and at […] was taken as the measure for the amount of phosphorylated substrate. The data were normalised (enzyme reaction without inhibitor=0% inhibition, all other assay components but no enzyme=100% inhibition).
(Time-resolved FRET reads energy transfer from a long-lived donor to a nearby acceptor.)

In assay [2] the target is T2, CDK12 (Homo sapiens, UniProt Q9NYV4).
T2 construct: endogenous in cells; host or cells: CAL-120 human breast cancer cells (DSMZ ACC 459)
T2 sequence (Q9NYV4 whole entry): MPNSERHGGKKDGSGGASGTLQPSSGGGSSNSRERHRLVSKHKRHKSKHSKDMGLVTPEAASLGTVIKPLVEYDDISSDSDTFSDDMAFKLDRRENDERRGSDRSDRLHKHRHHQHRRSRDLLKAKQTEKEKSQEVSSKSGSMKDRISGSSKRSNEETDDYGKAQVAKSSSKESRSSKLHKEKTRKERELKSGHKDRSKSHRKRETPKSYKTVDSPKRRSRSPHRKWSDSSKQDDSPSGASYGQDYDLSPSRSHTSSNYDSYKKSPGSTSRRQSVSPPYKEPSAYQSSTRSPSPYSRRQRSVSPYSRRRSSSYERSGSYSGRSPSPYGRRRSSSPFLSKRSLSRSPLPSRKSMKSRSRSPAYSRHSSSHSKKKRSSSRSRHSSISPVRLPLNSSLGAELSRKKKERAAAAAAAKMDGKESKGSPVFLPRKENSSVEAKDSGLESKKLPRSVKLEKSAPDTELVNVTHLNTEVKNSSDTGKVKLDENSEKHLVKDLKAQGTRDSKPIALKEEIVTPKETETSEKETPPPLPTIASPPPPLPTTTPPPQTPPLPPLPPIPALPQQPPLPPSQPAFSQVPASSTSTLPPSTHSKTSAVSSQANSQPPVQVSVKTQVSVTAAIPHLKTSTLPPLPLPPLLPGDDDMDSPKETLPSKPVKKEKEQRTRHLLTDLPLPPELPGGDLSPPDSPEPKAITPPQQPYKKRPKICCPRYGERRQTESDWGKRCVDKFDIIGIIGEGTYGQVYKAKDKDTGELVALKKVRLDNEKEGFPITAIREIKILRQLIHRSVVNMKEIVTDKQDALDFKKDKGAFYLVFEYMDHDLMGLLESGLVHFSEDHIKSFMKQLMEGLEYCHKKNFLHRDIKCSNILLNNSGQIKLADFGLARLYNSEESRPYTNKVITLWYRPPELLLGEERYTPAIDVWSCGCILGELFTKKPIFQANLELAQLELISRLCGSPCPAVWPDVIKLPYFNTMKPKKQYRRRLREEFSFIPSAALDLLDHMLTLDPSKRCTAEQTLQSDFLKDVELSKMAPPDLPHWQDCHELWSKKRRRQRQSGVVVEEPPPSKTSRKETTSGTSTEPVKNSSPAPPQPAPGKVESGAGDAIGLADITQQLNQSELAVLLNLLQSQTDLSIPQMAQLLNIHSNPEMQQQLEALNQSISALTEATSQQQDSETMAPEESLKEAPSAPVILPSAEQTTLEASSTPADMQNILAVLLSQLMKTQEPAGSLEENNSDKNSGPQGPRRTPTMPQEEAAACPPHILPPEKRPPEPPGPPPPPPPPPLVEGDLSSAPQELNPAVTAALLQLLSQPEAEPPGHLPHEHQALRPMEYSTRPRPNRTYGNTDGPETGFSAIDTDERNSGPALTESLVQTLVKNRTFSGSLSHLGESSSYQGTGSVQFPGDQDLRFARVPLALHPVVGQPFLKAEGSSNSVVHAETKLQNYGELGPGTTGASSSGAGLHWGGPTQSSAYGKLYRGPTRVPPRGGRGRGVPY
T2 sequence (O75909 whole entry partner): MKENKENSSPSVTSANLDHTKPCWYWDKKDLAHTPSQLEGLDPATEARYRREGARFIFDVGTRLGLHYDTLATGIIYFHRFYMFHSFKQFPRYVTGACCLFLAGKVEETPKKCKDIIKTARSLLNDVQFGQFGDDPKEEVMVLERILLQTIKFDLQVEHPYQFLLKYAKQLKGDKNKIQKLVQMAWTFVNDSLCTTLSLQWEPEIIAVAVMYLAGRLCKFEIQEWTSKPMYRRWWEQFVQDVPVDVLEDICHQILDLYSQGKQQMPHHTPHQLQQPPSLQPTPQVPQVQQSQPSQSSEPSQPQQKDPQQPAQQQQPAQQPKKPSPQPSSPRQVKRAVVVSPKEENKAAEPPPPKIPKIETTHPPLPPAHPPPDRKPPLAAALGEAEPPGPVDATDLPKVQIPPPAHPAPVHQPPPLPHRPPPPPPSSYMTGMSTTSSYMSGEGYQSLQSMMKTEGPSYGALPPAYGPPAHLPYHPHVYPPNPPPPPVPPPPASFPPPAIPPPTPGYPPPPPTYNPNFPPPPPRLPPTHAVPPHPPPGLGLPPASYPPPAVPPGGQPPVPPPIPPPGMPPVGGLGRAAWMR
Put plainly: CDK12 nuclear protein level: immunofluorescence/high content analysis in CAL-120 cells. Type of assay: cell-based. The following applies: for DC50: CAL-120 cells, 24 h, nuclear CDK12 staining, read-out: CDK12 degradation IF DC50-[mol/l] (median); for (IC50 CDK12 high ATP) to (Degradation DC50 CDK12) ratio: IC50 CDK12 hATP (Table 2) divided by DC50 CDK12 IF (Table 8). As to the method: In the context of the present invention, the term “DC50 CDK12” refers to the DC50 values obtained according to the assay described in this section (6) herein below, i.e. the DC50 values for the degradation of CDK12.
CAL-120 human breast cancer cells (DSMZ ACC 459) are seeded in 1536-well microtiter plates (800 cells per well) containing 50 nanoL of compounds in Dose-Response. Control wells received DMSO or Reference Example 1. Plates are then incubated for 24 h at 37° C. in an humidified incubator and fixed with 4% PFA for 10 min. Then immunofluorescence (IF) against CDK12 (CellSignalling CDK12 Antibody #11973, rabbit, 1:100 dilution) is performed using standard IF protocols. Cells are then stained with Hoechst 33342 (Life Technologies, H-1399, 0.1 microg/ml) and imaged on an automated confocal microscopy system (e.g. Perkin Elmer Opera Phenix). Nuclear and cytoplasmic intensity as well as the nuclear/cytoplasmic intensity ratio is determined by automated image analysis using custom generated scripts (MetaXpress). Data is then transferred to Genedata Screener software, normalized to DMSO and control and DC50 values (degrading concentration to achieve 50% reduction of nuclear CDK12 staining intensity relative to controls) are reported.

Bounds are passed on as bounds.

T1 sequence (P50750 whole entry): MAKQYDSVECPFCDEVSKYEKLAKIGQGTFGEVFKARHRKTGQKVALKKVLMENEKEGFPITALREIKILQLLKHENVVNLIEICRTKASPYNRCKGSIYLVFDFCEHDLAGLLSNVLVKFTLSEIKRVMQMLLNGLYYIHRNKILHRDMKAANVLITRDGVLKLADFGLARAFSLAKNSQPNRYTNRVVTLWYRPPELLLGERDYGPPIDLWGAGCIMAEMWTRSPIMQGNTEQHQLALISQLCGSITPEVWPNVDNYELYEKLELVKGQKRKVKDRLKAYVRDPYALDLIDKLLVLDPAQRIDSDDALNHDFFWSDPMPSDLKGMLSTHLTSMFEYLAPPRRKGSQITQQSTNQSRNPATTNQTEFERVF
T1 sequence (O60563 whole entry partner): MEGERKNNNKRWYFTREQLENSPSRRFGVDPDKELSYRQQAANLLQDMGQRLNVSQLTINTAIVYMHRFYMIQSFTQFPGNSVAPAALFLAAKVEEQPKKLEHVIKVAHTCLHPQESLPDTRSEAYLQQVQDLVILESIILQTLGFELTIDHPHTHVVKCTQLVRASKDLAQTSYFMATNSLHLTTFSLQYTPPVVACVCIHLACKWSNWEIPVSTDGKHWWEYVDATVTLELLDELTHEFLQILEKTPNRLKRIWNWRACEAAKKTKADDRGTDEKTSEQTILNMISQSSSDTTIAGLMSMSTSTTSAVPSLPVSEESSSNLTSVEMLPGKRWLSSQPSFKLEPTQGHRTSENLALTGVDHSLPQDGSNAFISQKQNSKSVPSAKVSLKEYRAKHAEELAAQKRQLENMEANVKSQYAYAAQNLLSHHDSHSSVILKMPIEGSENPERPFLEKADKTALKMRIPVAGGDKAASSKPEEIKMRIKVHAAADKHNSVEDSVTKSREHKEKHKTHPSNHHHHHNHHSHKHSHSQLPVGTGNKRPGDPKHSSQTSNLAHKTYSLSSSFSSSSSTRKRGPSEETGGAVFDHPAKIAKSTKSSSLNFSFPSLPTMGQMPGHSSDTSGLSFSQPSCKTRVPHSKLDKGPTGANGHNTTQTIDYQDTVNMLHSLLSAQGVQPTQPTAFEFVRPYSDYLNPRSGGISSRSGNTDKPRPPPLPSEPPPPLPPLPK

As to `Fc1ccc2[nH]c(CNc3nc(N4CCOCC4)nn4c(Br)cnc34)nc2c1F` [Example 7, 7-bromo-N-[(4,5-difluoro-1H-benzimidazol-2-yl)methyl]-2-(morpholin-4-yl)imidazo[2,1-f][1,2,4]triazin-4-amine], the IC50 in assay [1] came to 9060 nM. In assay [2], the DC50 was 0.992 nM and the “(IC50 CDK12 high ATP) to (Degradation DC50 CDK12) ratio” value was 1272.
The matching figures for `N#Cc1cnc2c(NCc3nc4ccccc4[nH]3)nc(N3CCOCC3)nn12` [Example 2, 4-{[(1H-benzimidazol-2-yl)methyl]amino}-2-(morpholin-4-yl)imidazo[2,1-f][1,2,4]triazine-7-carbonitrile]: greater than 20000 nM, 4.83 nM and 1444.
Taken in the same sequence, the figures for `CN1CCN(c2nc(NCc3nc4ccccc4[nH]3)c3ncc(C(F)(F)F)n3n2)CC1` [Example 25, N-[(1H-benzimidazol-2-yl)methyl]-2-(4-methylpiperazin-1-yl)-7-(trifluoromethyl)imidazo[2,1-f][1,2,4]triazin-4-amine] were greater than 20000 nM, 3.55 nM and 3050.
Taken in the same sequence, the figures for `COc1cccc2[nH]c(CNc3nc(N4C[C@@H](C)N[C@@H](C)C4)nn4c(Br)cnc34)nc12` [Example 14, 7-bromo-2-[rel-(3R,5S)-3,5-dimethylpiperazin-1-yl]-N-[(4-methoxy-1H-benzimidazol-2-yl)methyl]imidazo[2,1-f][1,2,4]triazin-4-amine] were greater than 18100 nM, 0.495 nM and 4066.
Take `Fc1cccc2[nH]c(CNc3nc(N4CCNCC4)nn4c(Br)cnc34)nc12` [Example 22, 7-bromo-N-[(4-fluoro-1H-benzimidazol-2-yl)methyl]-2-(piperazin-1-yl)imidazo[2,1-f][1,2,4]triazin-4-amine]: in assay [1], the IC50 is greater than 19700 nM. For the same compound, in assay [2], the DC50 was 1.96 nM and the “(IC50 CDK12 high ATP) to (Degradation DC50 CDK12) ratio” value turned out to be 1305.
Taken in the same sequence, the figures for `Fc1ccc2[nH]c(CNc3nc(N4CCOCC4)nn4c(C(F)(F)F)cnc34)nc2c1F` [Example 27, N-[(4,5-difluoro-1H-benzimidazol-2-yl)methyl]-2-(morpholin-4-yl)-7-(trifluoromethyl)imidazo[2,1-f][1,2,4]triazin-4-amine] were 6740 nM, 1.1 nM and 10.
As to `COc1cccc2[nH]c(CNc3nc(N4CCN(C)CC4)nn4c(Br)cnc34)nc12.O=CO` [Example 16, 7-bromo-N-[(4-methoxy-1H-benzimidazol-2-yl)methyl]-2-(4-methylpiperazin-1-yl)imidazo[2,1-f][1,2,4]triazin-4-amine Formate (1/1)], the IC50 in assay [1] was greater than 20000 nM. In assay [2], the DC50 is 1.32 nM and the “(IC50 CDK12 high ATP) to (Degradation DC50 CDK12) ratio” value came to 4779.
Taken in the same sequence, the figures for `Fc1cccc2[nH]c(CNc3nc(N4CCOCC4)nn4c(Br)cnc34)nc12` [Example 12, 7-bromo-N-[(4-fluoro-1H-benzimidazol-2-yl)methyl]-2-(morpholin-4-yl)imidazo[2,1-f][1,2,4]triazin-4-amine] were greater than 20000 nM, 4.35 nM and 1084.
The matching figures for `CN1CCN(c2nc(NCc3nc4ccccc4[nH]3)c3ncc(Br)n3n2)CC1` [Example 6, N-[(1H-benzimidazol-2-yl)methyl]-7-bromo-2-(4-methylpiperazin-1-yl)imidazo[2,1-f][1,2,4]triazin-4-amine]: greater than 20000 nM, 3.84 nM and greater than 4836.
The matching figures for `C[C@@H]1CN(c2nc(NCc3nc4cc(F)ccc4[nH]3)c3ncc(Br)n3n2)C[C@H](C)N1` [Example 19, 7-bromo-2-[rel-(3R,5S)-3,5-dimethylpiperazin-1-yl]-N-[(5-fluoro-1H-benzimidazol-2-yl)methyl]imidazo[2,1-f][1,2,4]triazin-4-amine]: greater than 20000 nM, 0.513 nM and 12546.
Regarding `OC[C@@H]1CCCCN1c1nc(NCc2nc3ccccc3[nH]2)c2ncc(Br)n2n1` [Example 17, [(2S)-1-(4-{[(1H-benzimidazol-2-yl)methyl]amino}-7-bromoimidazo[2,1-f][1,2,4]triazin-2-yl)piperidin-2-yl]methanol], the IC50 in assay [1] came to 4110 nM. In assay [2], the DC50 was 7.62 nM and the “(IC50 CDK12 high ATP) to (Degradation DC50 CDK12) ratio” value was 15.
Take `Brc1cnc2c(NCc3nc4ccccc4[nH]3)nc(N3CCNCC3)nn12` [Example 8, N-[(1H-benzimidazol-2-yl)methyl]-7-bromo-2-(piperazin-1-yl)imidazo[2,1-f][1,2,4]triazin-4-amine]: the IC50 in assay [1] was greater than 20000 nM. In addition, in assay [2], the DC50 is 0.527 nM and the “(IC50 CDK12 high ATP) to (Degradation DC50 CDK12) ratio” value is reported as 10707.
Taken in the same sequence, the figures for `C[C@@H]1CN(c2nc(NCc3nc4c(F)c(F)ccc4[nH]3)c3ncc(Br)n3n2)C[C@H](C)N1` [Example 11, 7-bromo-N-[(4,5-difluoro-1H-benzimidazol-2-yl)methyl]-2-[rel-(3R,5S)-3,5-dimethylpiperazin-1-yl]imidazo[2,1-f][1,2,4]triazin-4-amine] were 10800 nM, 0.111 nM and 5221.
Taken in the same sequence, the figures for `Fc1ccc2[nH]c(CNc3nc(N4CCOCC4)nn4c(Br)cnc34)nc2c1` [Example 20, 7-bromo-N-[(5-fluoro-1H-benzimidazol-2-yl)methyl]-2-(morpholin-4-yl)imidazo[2,1-f][1,2,4]triazin-4-amine] were greater than 20000 nM, 0.842 nM and 4106.
Taken in the same sequence, the figures for `C[C@@H]1CN(c2nc(NCc3nc4c(F)cccc4[nH]3)c3ncc(Br)n3n2)C[C@H](C)N1` [Example 18, 7-bromo-2-[rel-(3R,5S)-3,5-dimethylpiperazin-1-yl]-N-[(4-fluoro-1H-benzimidazol-2-yl)methyl]imidazo[2,1-f][1,2,4]triazin-4-amine] were 14200 nM, 0.631 nM and 2854.
As to `C[C@@H]1CN(c2nc(NCc3nc4c(F)c(F)ccc4[nH]3)c3ncc(Br)n3n2)C[C@H](C)O1` [Example 5, 7-bromo-N-[(4,5-difluoro-1H-benzimidazol-2-yl)methyl]-2-[rel-(2R,6S)-2,6-dimethylmorpholin-4-yl]imidazo[2,1-f][1,2,4]triazin-4-amine], the IC50 in assay [1] is 3470 nM. In addition, in assay [2], the DC50 is 2.07 nM and the “(IC50 CDK12 high ATP) to (Degradation DC50 CDK12) ratio” value is recorded as 66.
